In publication PMC10810434, “Thymoquinone-protoflavone hybrid molecules as potential antitumor agents” (PLOS ONE, 2024):
Like-named read-outs stand apart in the source and are kept apart here.

How the values were obtained:
MDA-MB-231 = test: In vitro antiproliferative MTT assay on MDA-MB-231; assay type: cell-based, human; conditions: mean of two independent measurements with three replicates each, read-out: Calculated IC50 ± SEM, MDA-MB-231
Source text: (§1) Gynecological cancer cell lines of human origin including breast cancer like the triple negative MDA-MB-231 and estrogen receptor positive MCF-7, […] cervical adenocarcinoma (HeLa), and human glioblastoma (U-87) cell lines were used as in vitro models to study the antiproliferative effects of the evaluated compounds. All cell lines were cultivated in T-75 flasks in a minimal essential medium (MEM) supplemented with 10% heat-inactivated fetal bovine serum (FBS), 1% antibiotic-antimycotic mixture (penicillin-streptomycin-amphotericin B) and 1% non-essential amino acids. Non-cancerous human lung fibroblast cell line (MRC-5) was maintained in low glucose Dulbecco’s Modified Eagle Medium (DMEM) supplemented with 20% heat-inactivated FBS, 1% antibiotic-antimycotic mixture and 4 mM L-glutamine. The cells were incubated at 37°C in 5% CO^2 incubator. The cells were seeded in 96-well plates at a density of 5 x 10^3 in 100 μL per well, except for the U-87 and MRC-5 that were seeded at 1 x 10^4 density and incubated at the same conditions for overnight to allow the cells’ attachment to the well’s bottom before the treatment.
(§2) The compounds were dissolved in dimethyl sulfoxide (DMSO) as 10 mM standard stock solutions and kept at -20°C with minimum light exposure. Immediately before each experiment, the stock solution was used and diluted with a culture medium to get the final concentrations. The values of half-maximal inhibitory concentration (IC50) were determined by exposure of the cells into eight different concentrations of each tested compound (0.39, 0.78, 1.56, 3.125, 6.25, 12.5, 25 and 50 μM). Temozolomide (TMZ) and cisplatin were used as positive controls in the case of U-87 and the gynecological cell lines, respectively. The negative control wells included the cells with only MEM treatment. The plates were incubated for up to 72 hours under the same abovementioned incubation conditions. The colorimetric MTT assay was used to assess the compounds’ effect on cell proliferation. Briefly, 20 μL of MTT solution ([3-(4,5-dimethylthiazol-2-yl)-2,5-diphenyltetrazolium bromide], 5 mg/mL in PBS, Duchefa Biochemie BV, Haarlem, The Netherlands) was added to each well including the negative controls and kept under the usual incubation circumstances for additional four hours. Subsequently, the media was carefully aspirated and 100 μL of DMSO was added to each well and the plates were gently shaken for 30 min to solubilize the precipitated crystals of purple formazan. Absorbance was measured at a wavelength of 545 nm using a microplate UV-VIS reader (SPECTROstar Nano, BMG Labtech GmbH, Offenburg, Germany). The same procedure was performed using MRC-5 cells to determine the cancer selectivity of the most promising test compounds.
(§3) Cell viability data were collected from two separate experiments in triplicates and evaluated using GraphPad Prism 9.5.1 (GraphPad Software Inc., San Diego, CA, USA). The half-maximal inhibitory concentration (IC50) values were determined using the log inhibitor vs normalized response nonlinear regression model. Difference between the IC50 values of a hybrid and its corresponding fragments’ experimental combination was statistically evaluated using unpaired T-test. Cancer selectivity of the most promising test compounds was characterized by calculating and comparing their selectivity index (SI). The value of the parameter derives from the ratio of IC50 value of test compound on MRC-5 cells and that on U-87 cells. The higher the value, the better the cancer selectivity of the test compound.

MCF-7 = test: In vitro antiproliferative MTT assay on MCF-7; assay type: cell-based, human; conditions: mean of two independent measurements with three replicates each, read-out: Calculated IC50 ± SEM, MCF-7
Source text: as §1, §2, §3

HeLa = test: In vitro antiproliferative MTT assay on HeLa; assay type: cell-based, human; conditions: up to 72 hours, mean of two independent measurements with three replicates each, read-out: Calculated IC50 ± SEM, HeLa
Source text: as §1, §2, §3

U-87 glioblastoma cells = test: In vitro antiproliferative MTT assay on U-87; assay type: cell-based, human
Source text: as §1, §2, §3

[1] = tested on: MRC-5 non-cancerous human lung fibroblast cell line; test: In vitro antiproliferative MTT assay on MRC-5 (cancer selectivity); assay type: cell-based; conditions: for IC50: MRC5, Table 3, non-cancerous human lung fibroblasts, read-out: Calculated IC50 ± SEM, MRC-5; for Selectivity index SI = IC50 (MRC-5)/IC50 (U-87): MRC-5 vs U-87
Source text: as §1, §2, §3

U-87 cells = test: Combination assay: equimolar fragment mixtures vs hybrids on U-87; assay type: cell-based, human; conditions: for Hybrid vs corresponding 1:1 fragment mixture, antiproliferative activity in words: U-87 cells
Experimental: as §2
Combination study was performed by treating cells with equimolar mixtures of the abovementioned fragments or their hybrids, and corresponding cell viability data were comparatively evaluated. In this bioassay, at least two separate experiments were performed, each in triplicate. The dataset was then subjected to appropriate statistical analysis. The calculated IC50 values were subsequently employed to quantitatively assess the extent of pharmacological benefit obtained through the hybridization of fragments in comparison to the cytotoxic effect produced by the experimental combination of PA or its derivatives and TQ fragments.
as §3

[2] = tested on: MDA-MB-231, MCF-7, HeLa, U-87; test: In vitro antiproliferative MTT assay, cancer cell line panel; assay type: cell-based; conditions: Homo sapiens; all tested cancer cell lines; read-out: IC50 values against cancer cells (range over cell lines)
Source text: Gynecological cancer cell lines of human origin including breast cancer like the triple negative MDA-MB-231 and estrogen receptor positive MCF-7, […] cervical adenocarcinoma (HeLa), and human glioblastoma (U-87) cell lines were used as in vitro models to study the antiproliferative effects of the evaluated compounds. All cell lines were cultivated in T-75 flasks in a minimal essential medium (MEM) supplemented with 10% heat-inactivated fetal bovine serum (FBS), 1% antibiotic-antimycotic mixture (penicillin-streptomycin-amphotericin B) and 1% non-essential amino acids. […]
The compounds were dissolved in dimethyl sulfoxide (DMSO) as 10 mM standard stock solutions and kept at -20°C with minimum light exposure. […] Absorbance was measured at a wavelength of 545 nm using a microplate UV-VIS reader (SPECTROstar Nano, BMG Labtech GmbH, Offenburg, Germany). […]
Cell viability data were collected from two separate experiments in triplicates and evaluated using GraphPad Prism 9.5.1 (GraphPad Software Inc., San Diego, CA, USA). The half-maximal inhibitory concentration (IC50) values were determined using the log inhibitor vs normalized response nonlinear regression model. Difference between the IC50 values of a hybrid and its corresponding fragments’ experimental combination was statistically evaluated using unpaired T-test. […]

[3] = Homo sapiens, MDA-MB-231, up to 72 hours
[4] = Homo sapiens, MCF7, up to 72 hours
[5] = Homo sapiens, MTT, up to 72 hours, mean of two independent measurements with three replicates each, read-out: Calculated IC50 ± SEM, U-87
[6] = Homo sapiens, Table 3, U-87 glioblastoma, read-out: Calculated IC50 ± SEM, U-87 (Table 3)

| Compound | IC50 (MDA-MB-231; up to 72 hours) [µM] | IC50 (MCF-7; up to 72 hours) [µM] | IC50 (HeLa) [µM] | IC50 (U-87 glioblastoma cells; MTT, up to 72 hours, mean of two independent measurements with three replicates each, read-out: Calculated IC50 ± SEM, U-87) [µM] | IC50 (MDA-MB-231; [3]) [µM] | IC50 (MCF-7; [4]) [µM] | IC50 (HeLa; Homo sapiens, HeLa) [µM] | IC50 (U-87 glioblastoma cells; [5]) [µM] | IC50 (U-87 glioblastoma cells; [6]) [µM] | IC50 [1] [µM] | Selectivity index SI = IC50 (MRC-5)/IC50 (U-87) [1] | Hybrid vs corresponding 1:1 fragment mixture, antiproliferative activity in words (U-87 cells) | Fold stronger activity of hybrid than 1:1 mixture of its fragments (U-87 cells; U-87 glioblastoma cells, hybrid vs mixture of fragments 4 and 6) | IC50 [2] [µM] |
| --- | --- | --- | --- | --- | --- | --- | --- | --- | --- | --- | --- | --- | --- | --- |
| N.N.[Cl][Pt][Cl] [Cis, cisplatin, reference compound] | 9.71 ± 0.51 | 6.55 ± 0.77 | 16 ± 2 | 9.13 ± 1.79 |  |  |  |  |  |  |  |  |  |  |
| CC1=CC(=O)C(C(C)C)=CC1=O [Compound 2, 2-isopropyl-5-methylcyclohexa-2,5-diene-1,4-dione] |  |  |  |  | 7.02 ± 0.17 | 24 ± 1.37 | > 100 | 39.1 ± 3.53 |  |  |  |  |  |  |
| CC1=C(CCC(=O)O)C(=O)C(C(C)C)=CC1=O [Compound 3, 3-(5-isopropyl-2-methyl-3,6-dioxocyclohexa-1,4-dien-1-yl)propanoic acid] |  |  |  |  | 38.2 ± 2.81 | > 100 | > 100 | 77.7 ± 1.61 |  |  |  |  |  |  |
| CC1=CC(=O)C(C(C)C)=C(CCC(=O)O)C1=O [Compound 4, 3-(2-isopropyl-5-methyl-3,6-dioxocyclohexa-1,4-dien-1-yl)propanoic acid] |  |  |  |  | 12.4 ± 0.37 | > 100 | > 100 | 88.7 ± 5.17 | 88.7 ± 5.17 | 40.2 ± 1.04 |  |  |  |  |
| O=C1C=CC(O)(c2cc(=O)c3c(O)cc(O)cc3o2)C=C1 [Compound 6, Protoapigenone] |  |  |  |  | 0.57 ± 0.07 | 0.66 ± 0.06 | 1.8 ± 0.09 | 1.73 ± 0.11 | 1.73 ± 0.11 | 2.62 ± 0.2 | 1.51 |  |  |  |
| COC1(c2cc(=O)c3c(O)cc(O)cc3o2)C=CC(=O)C=C1 [Compound 7] |  |  |  |  | 2.23 ± 0.13 | 3.95 ± 0.3 | 5.51 ± 0.21 | 7.03 ± 0.11 |  |  |  |  |  |  |
| CCOC1(c2cc(=O)c3c(O)cc(O)cc3o2)C=CC(=O)C=C1 [Compound 8] |  |  |  |  | 1.22 ± 0.03 | 2.5 ± 0.11 | 2.83 ± 0.12 | 1.73 ± 0.06 | 1.73 ± 0.06 | 3.79 ± 0.25 | 2.19 |  |  |  |
| CCCCOC1(c2cc(=O)c3c(O)cc(O)cc3o2)C=CC(=O)C=C1 [Compound 9] |  |  |  |  | 0.82 ± 0.05 | 2.01 ± 0.07 | 1.88 ± 0.1 | 1.5 ± 0.12 | 1.5 ± 0.12 | 3.56 ± 0.12 | 2.37 |  |  |  |
| CC1=C(CCC(=O)Oc2cc(O)c3c(=O)cc(C4(O)C=CC(=O)C=C4)oc3c2)C(=O)C(C(C)C)=CC1=O [Compound 10] |  |  |  |  | 1.27 ± 0.04 | 1.65 ± 0.07 | 2 ± 0.26 | 6.16 ± 0.49 |  |  |  |  |  |  |
| COC1(c2cc(=O)c3c(O)cc(OC(=O)CCC4=C(C)C(=O)C=C(C(C)C)C4=O)cc3o2)C=CC(=O)C=C1 [Compound 11, 5-hydroxy-2-(1-methoxy-4-oxocyclohexa-2,5-dien-1-yl)-4-oxo-4H-chromen-7-yl 3-(5-isopropyl-2-methyl-3,6-dioxocyclohexa-1,4-dien-1-yl)propanoate] |  |  |  |  | 2.25 ± 0.13 | 2.66 ± 0.11 | 3.51 ± 0.17 | 7.63 ± 0.46 |  |  |  | synergism |  |  |
| CCOC1(c2cc(=O)c3c(O)cc(OC(=O)CCC4=C(C)C(=O)C=C(C(C)C)C4=O)cc3o2)C=CC(=O)C=C1 [Compound 12, 2-(1-ethoxy-4-oxocyclohexa-2,5-dien-1-yl)-5-hydroxy-4-oxo-4H-chromen-7-yl 3-(5-isopropyl-2-methyl-3,6-dioxocyclohexa-1,4-dien-1-yl)propanoate] |  |  |  |  | 2.15 ± 0.08 | 3.21 ± 0.07 | 2.35 ± 0.15 | 8.22 ± 0.73 |  |  |  |  |  |  |
| CCCCOC1(c2cc(=O)c3c(O)cc(OC(=O)CCC4=C(C)C(=O)C=C(C(C)C)C4=O)cc3o2)C=CC(=O)C=C1 [Compound 13, 2-(1-butoxy-4-oxocyclohexa-2,5-dien-1-yl)-5-hydroxy-4-oxo-4H-chromen-7-yl 3-(5-isopropyl-2-methyl-3,6-dioxocyclohexa-1,4-dien-1-yl)propanoate] |  |  |  |  | 0.99 ± 0.05 | 1.68 ± 0.16 | 1.4 ± 0.25 | 3.43 ± 0.25 |  |  |  |  |  |  |
| CC1=CC(=O)C(C(C)C)=C(CCC(=O)Oc2cc(O)c3c(=O)cc(C4(O)C=CC(=O)C=C4)oc3c2)C1=O [Compound 14, 5-hydroxy-2-(1-hydroxy-4-oxocyclohexa-2,5-dien-1-yl)-4-oxo-4H-chromen-7-yl 3-(2-isopropyl-5-methyl-3,6-dioxocyclohexa-1,4-dien-1-yl)propanoate] |  |  |  |  | 0.52 ± 0.02 | 1.2 ± 0.03 | 1.06 ± 0.08 | 1.16 ± 0.2 | 1.16 ± 0.2 | 5.1 ± 0.21 | 4.40 | synergism | ca. three | 0.51 to 1.2 |
| COC1(c2cc(=O)c3c(O)cc(OC(=O)CCC4=C(C(C)C)C(=O)C=C(C)C4=O)cc3o2)C=CC(=O)C=C1 [Compound 15, 5-hydroxy-2-(1-methoxy-4-oxocyclohexa-2,5-dien-1-yl)-4-oxo-4H-chromen-7-yl 3-(2-isopropyl-5-methyl-3,6-dioxocyclohexa-1,4-dien-1-yl)propanoate] |  |  |  |  | 3.53 ± 0.17 | 5.44 ± 1.32 | 6.78 ± 0.28 | 18.9 ± 3.42 |  |  |  | no apparent difference |  |  |
| CCOC1(c2cc(=O)c3c(O)cc(OC(=O)CCC4=C(C(C)C)C(=O)C=C(C)C4=O)cc3o2)C=CC(=O)C=C1 [Compound 16, 2-(1-ethoxy-4-oxocyclohexa-2,5-dien-1-yl)-5-hydroxy-4-oxo-4H-chromen-7-yl 3-(2-isopropyl-5-methyl-3,6-dioxocyclohexa-1,4-dien-1-yl)propanoate] |  |  |  |  | 1.98 ± 0.06 | 4.11 ± 0.34 | 1.71 ± 0.16 | 6.06 ± 0.4 |  |  |  | no apparent difference |  |  |
| CCCCOC1(c2cc(=O)c3c(O)cc(OC(=O)CCC4=C(C(C)C)C(=O)C=C(C)C4=O)cc3o2)C=CC(=O)C=C1 [Compound 17, 2-(1-butoxy-4-oxocyclohexa-2,5-dien-1-yl)-5-hydroxy-4-oxo-4H-chromen-7-yl 3-(2-isopropyl-5-methyl-3,6-dioxocyclohexa-1,4-dien-1-yl)propanoate] |  |  |  |  | 1.08 ± 0.08 | 2.7 ± 0.09 | 3.08 ± 0.46 | 8.65 ± 1.15 |  |  |  |  |  |  |
| Cn1nnc2c(C(N)=O)ncn2c1=O [TMZ, temozolomide, reference compound] |  |  |  |  |  |  |  | 388 ± 43 | 388 ± 43 | 1090 ± 45.1 | 2.82 |  |  |  |
